In US20230346831A1, “METHODS FOR TREATING […] USING LOW DOSE CARBON MONOXIDE” (priority 2020, published 2023):

Legend:
Type in all cases: cell-based, human
MDA-MB-231 cells = assay: in vitro transwell migration assay; details: 16 hours
Description: MDA-MB-231/TGL cell lines was obtained from Dr. Joan Massagué (Minn, et al, J. Clin. Invest., 115:(1), 44-55 (2005)). CM cell line was obtained from Dr. Paolo Pozzilli (S. Kobayashi et al., Oncogenesis 8, 16 (2019)). MCF7 breast cancer cells and 8988T pancreatic cancer cells were infected with viruses carrying thymidine kinase/green fluorescent protein/luciferase fusion reporter (TGL), which was obtained from Drs. Inna Serganova and Ronald Blasberg (V. Ponomarev et al., European journal of nuclear medicine and molecular imaging 31, 740-751 (2004)). GFP-positive MCF7/TGL and 8999T/TGL cells were enriched by fluorescence-activated cell sorting. H1975, lung adenocarcinoma cell line, was obtained from ATCC (Manassas, VA). […]
(§1) 6.5 mm Transwell with 8.0 µm Pore Polycarbonate Membrane Insert (Corning, NY, Cat. No. 3422) was used for the cell migration assay (FIG. 1J). After 16 hours of incubation, cells migrated to the opposite side of the upper chambers were fixed with 4% paraformaldehyde, stained with 0.2% crystal violet for 30 min and counted in five fields under × 20 magnification. […] The optical density was measured at 595 nm (OD595). […]
To examine whether CO has an effect on tumor cell migration, in vitro transwell migration assays were performed. […] Cell migration through the transwell membrane along a serum gradient (Table 1) after 16 hours in the presence or absence of 250 ppm CO were measured. […]

[1] = system: various cancer cell lines; assay: proliferation assay, statements across cancer types
Method: (§2) Proliferation of different cancer cells under control air or 250 ppm CO treatment with or without supplement of 30 µM hemin was determined. Indicated cell lines cell lines were seeded in the 24-well plate in normal growth media. 16 hours later, cells were fixed, stained with crystal violet, and lysed by methanol. OD595 were measured from triplicates of each cell type. Error bars represent SEM. *: P < 0.05, two-sided t-test. Scale bar, 100 µm.
as §1, with “magnification. In parallel, cells were seeded on 24-well plates for proliferation assay.” for “magnification.”
To investigate whether 250 ppm CO induces hypoxia, HiF1α protein levels in low-dose CO-treated MCF7/TGL and MDA-MB-231/TGL cells were examined. […] To assess the intracellular heme levels affected by low-dose CO treatment, oxidized heme levels in the form of hemin (Fe^3+ state) were measured because free heme (Fe^2+ state) is readily oxidized and cannot be measured. […]

HepG2 cells [2] = assay: proliferation assay (crystal violet, OD595); details: 16 hours
Method: as §2
(§3) 6.5 mm Transwell with 8.0 µm Pore Polycarbonate Membrane Insert (Corning, NY, Cat. No. 3422) was used for the cell migration assay (FIG. 1J). After 16 hours of incubation, cells migrated to the opposite side of the upper chambers were fixed with 4% paraformaldehyde, stained with 0.2% crystal violet for 30 min and counted in five fields under × 20 magnification. In parallel, cells were seeded on 24-well plates for proliferation assay. Cells for proliferation control were fixed with 4% paraformaldehyde, stained with 0.2% crystal violet for 30 min and lysed with methanol to release the crystal violet as described by M. Feoktistova, P. Geserick, & M. Leverkus, Cold Spring Harb Protoc 2016, pdb prot087379 (2016). The optical density was measured at 595 nm (OD595). To supplement heme/hemin in the transwell migration assay, 30 µM hemin (MedChemExpress, Monmouth Junction, NJ, Cat. No. HY-19424) was added to both the cell suspension in the upper chambers and the bottom wells.
(§4) To examine whether CO has an effect on tumor cell migration, in vitro transwell migration assays were performed. Various human cancer cell lines, including 3 types of breast cancer (ER^+: MCF7 cells, HER2^+: HCC1954 cells, triple-negative breast cancer (TNBC): MDA-MB-231 cells), pancreatic ductal adenocarcinoma (PDAC) (8988T cells), pancreatic neuroendocrine tumor (PNET) (CM cells), colon cancer (SW480 cells), prostate cancer (22Rv1 cells), liver cancer (HepG2 cells), and lung cancer (H1975 cells) were seeded in the upper chamber of 8-µm porous polycarbonate membranes. Cell migration through the transwell membrane along a serum gradient (Table 1) after 16 hours in the presence or absence of 250 ppm CO were measured.

22Rv1 cells = assay: in vitro transwell migration assay; details: 16 hours
Description: (§5) MDA-MB-231/TGL cell lines was obtained from Dr. Joan Massagué (Minn, et al, J. Clin. Invest., 115:(1), 44-55 (2005)). CM cell line was obtained from Dr. Paolo Pozzilli (S. Kobayashi et al., Oncogenesis 8, 16 (2019)). MCF7 breast cancer cells and 8988T pancreatic cancer cells were infected with viruses carrying thymidine kinase/green fluorescent protein/luciferase fusion reporter (TGL), which was obtained from Drs. Inna Serganova and Ronald Blasberg (V. Ponomarev et al., European journal of nuclear medicine and molecular imaging 31, 740-751 (2004)). GFP-positive MCF7/TGL and […] cells were enriched by fluorescence-activated cell sorting. H1975, lung adenocarcinoma cell line, was obtained from ATCC (Manassas, VA). MCF7/TGL/pQ and MCF7/TGL/HA-Bcl-xL cell lines were generated by infecting MCF7/TGL cells with viruses carrying pQXCIP or pQXCIP-HA-Bcl-xL, and selected in the medium containing 0.5-1 µg/ml puromycin. Human CYP1B1cDNA (GeneScript) was transiently transfected into MCF7/TGL, MDA-MB-231/TGL, and 8988T/TGL with Lipofectamine 3000 according to the manufacture’s protocol (Invitrogen, Carlsbad, CA). Cells were treated with CO at 250 ppm for 16 hours. Control air condition was a regular cell culture incubator with 5% CO2. Cells were also treated with 30 µM Hemin (HY-19424, MedChemExpress, Monmouth Junction, NJ) in standard tissue culture incubator or 250 ppm CO.
as §3, §4

HCC1954 cells = assay: in vitro transwell migration assay; details: 16 hours
Description: as §5, §3, §4

SW480 cells = assay: in vitro transwell migration assay; details: 16 hours
Description: as §5, §3, §4

H1975 cells = assay: in vitro transwell migration assay; details: 16 hours
Description: as §5, §3, §4

HepG2 cells [3] = assay: in vitro transwell migration assay; details: 16 hours
Description: as §5, §3, §4

8988T cells = assay: in vitro transwell migration assay; details: 16 hours
Description: as §5, §3, §4

MCF7 cells = assay: in vitro transwell migration assay; details: 16 hours
Description: as §5, §3, §4

CM cells = assay: in vitro transwell migration assay; details: 16 hours
Description: as §5, §3, §4

[4] = 250 ppm CO, serum gradient, vs control air
[5] = 30 µM hemin in upper and lower chambers + 250 ppm CO

[C-]#[O+] [CO, Carbon monoxide]
significantly reduced: cell migration through the transwell membrane (MDA-MB-231 cells; MDA-MB-231 cells, 250 ppm CO, serum gradient, vs control air) | cell migration through the transwell membrane (22Rv1 cells; [4]) | cell migration through the transwell membrane (HCC1954 cells; [4]) | cell migration through the transwell membrane (SW480 cells; [4]) | cell migration through the transwell membrane (H1975 cells; [4]) | cell migration through the transwell membrane (HepG2 cells [3]; [4]) | cell migration through the transwell membrane (8988T cells; [4]) | cell migration through the transwell membrane (MCF7 cells; MCF7 cells, 250 ppm CO, serum gradient, vs control air) | cell migration through the transwell membrane (CM cells; [4])
did not affect: cell proliferation (HepG2 cells [2]; 250 ppm CO, vs control air)
does not affect: cancer cell proliferation across different cancer types ([1]; 250 ppm CO for 16 hours, vs control air)

Hemin [reference compound]
slightly increased: cell proliferation of various cancer cell lines with hemin ([1]; 30 µM hemin in the medium (FIGS. 2C-2E))
did not alter: cancer cell proliferation with hemin supplement (HepG2 cells [2]; 30 µM hemin, with or without 250 ppm CO)
significantly reversed: cell migration inhibited by 250 ppm CO (reversal by hemin) (MDA-MB-231 cells; MDA-MB-231/TGL cells, 30 µM hemin in upper and lower chambers + 250 ppm CO) | cell migration inhibited by 250 ppm CO (reversal by hemin) (22Rv1 cells; [5]) | cell migration inhibited by 250 ppm CO (reversal by hemin) (HCC1954 cells; [5]) | cell migration inhibited by 250 ppm CO (reversal by hemin) (SW480 cells; [5]) | cell migration inhibited by 250 ppm CO (reversal by hemin) (H1975 cells; [5]) | cell migration inhibited by 250 ppm CO (reversal by hemin) (HepG2 cells [3]; [5]) | cell migration inhibited by 250 ppm CO (reversal by hemin) (8988T cells; [5]) | cell migration inhibited by 250 ppm CO (reversal by hemin) (MCF7 cells; MCF7/TGL cells, 30 µM hemin in upper and lower chambers + 250 ppm CO) | cell migration inhibited by 250 ppm CO (reversal by hemin) (CM cells; [5])
